Assay results from patent publication US9249448B2 (priority 2010, dated 2016).

Biological target: protein of SEQ ID NO 1 (yxel gene product) (Bacillus subtilis, UniProt P54948, G69A/I70F/P219S/T91M)
Settings: sodium acetate 100 mM final concentration; substrate 0.2 mg/ml, 37°, 15 min, PBS buffer; compared with background activity of plasmid-free E. coli strain
Excerpt: Cells obtained as in example 2 were harvested by centrifugation and washed twice with PBS buffer to remove residual medium components. The final cell pellet was resuspended in PBS buffer (per liter water: 8 g NaCl, 0.2 g KCl, 1.44 g Na2HPO4, 0.24 g K H2PO4, pH 7.4) to reach a final OD600 of 30. This cell suspension of strains (either without plasmid or carrying the expression vectors described in Example 1) was used for the activity tests. The washed cell suspensions were contacted in PBS buffer with N-alpha-lauryl-glutamin (0.2 mg/ml final concentration, “LG” in FIG. 35), at 37° (final volume 0.25 ml) for 15 min. The actual test was performed as described in example 7 of WO 02/092024 A2, with GC as the test method.

Sequence of protein of SEQ ID NO 1 (yxel gene product) (P54948 whole entry G69A/I70F/T91M/P219S): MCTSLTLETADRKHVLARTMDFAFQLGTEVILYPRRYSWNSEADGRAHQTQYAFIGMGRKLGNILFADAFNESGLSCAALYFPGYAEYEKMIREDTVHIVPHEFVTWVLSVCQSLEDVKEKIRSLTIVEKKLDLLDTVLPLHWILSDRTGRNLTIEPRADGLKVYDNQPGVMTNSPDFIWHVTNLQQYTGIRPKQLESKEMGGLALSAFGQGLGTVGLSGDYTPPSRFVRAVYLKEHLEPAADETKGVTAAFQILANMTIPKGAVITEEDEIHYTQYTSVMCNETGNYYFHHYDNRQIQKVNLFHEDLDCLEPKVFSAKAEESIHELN

Structure (SMILES): CC(=O)[O-].[Na+] [sodium acetate]
- enzyme activity (inhibition of N-alpha-lauryl-glutamin cleavage): inhibited to the level of the background activity
